Legend:
[1] = biological target: Estrogen receptor beta (Homo sapiens, UniProt Q92731); details: sf9; further: in other assays of this panel Not Active means under 50% inhibition at 10 µM
[2] = biological target: Platelet-activating factor receptor (Homo sapiens, UniProt P25105); format: tissue-based; further: in other assays of this panel Not Active means under 50% inhibition at 10 µM
[3] = biological target: 5-hydroxytryptamine receptor 1B (Rattus norvegicus, UniProt P28564); format: cell membranes, Wistar, Cerebral cortex, Membrane; further: in other assays of this panel Not Active means under 50% inhibition at 10 µM
Chain of 5-hydroxytryptamine receptor 1B (P28564 whole entry): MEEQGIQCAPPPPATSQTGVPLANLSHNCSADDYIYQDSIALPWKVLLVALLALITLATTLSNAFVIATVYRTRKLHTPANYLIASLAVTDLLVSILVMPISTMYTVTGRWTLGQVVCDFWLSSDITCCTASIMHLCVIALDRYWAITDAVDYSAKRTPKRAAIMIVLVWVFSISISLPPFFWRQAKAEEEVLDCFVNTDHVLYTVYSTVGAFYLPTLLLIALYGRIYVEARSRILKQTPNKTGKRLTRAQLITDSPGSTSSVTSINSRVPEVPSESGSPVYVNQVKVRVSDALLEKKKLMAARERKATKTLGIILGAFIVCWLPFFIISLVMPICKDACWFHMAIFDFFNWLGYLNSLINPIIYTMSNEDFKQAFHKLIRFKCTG

[4] = DRUGMATRIX: Tumor Necrosis Factor (TNF), Non-Selective radioligand binding (ligand: [125I] TNF-alpha); format: cell membranes, Membrane; details: u-937; Not Active = under 50% inhibition at 10 µM
[5] = biological target: T1, Neuropeptide Y receptor type 2 (Homo sapiens, UniProt P49146); format: cell membranes, Membrane; details: kan-ts; further: in other assays of this panel Not Active means under 50% inhibition at 10 µM
T1 sequence (P49146 whole entry): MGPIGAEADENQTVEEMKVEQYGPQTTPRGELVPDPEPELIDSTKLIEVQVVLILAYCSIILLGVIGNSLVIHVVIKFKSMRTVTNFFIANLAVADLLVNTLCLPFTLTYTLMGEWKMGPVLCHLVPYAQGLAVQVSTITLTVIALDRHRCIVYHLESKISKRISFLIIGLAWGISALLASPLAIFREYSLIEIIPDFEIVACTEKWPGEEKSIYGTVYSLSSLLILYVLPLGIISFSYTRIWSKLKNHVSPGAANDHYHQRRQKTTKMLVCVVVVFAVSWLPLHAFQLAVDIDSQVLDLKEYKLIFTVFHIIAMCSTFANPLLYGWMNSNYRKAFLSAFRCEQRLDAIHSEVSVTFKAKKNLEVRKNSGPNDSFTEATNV

[6] = biological target: Mitogen-activated protein kinase 3 (Homo sapiens, UniProt P27361); test: DRUGMATRIX: Protein Serine/Threonine Kinase, ERK1 enzyme inhibition (substrate: Myelin Basic Protein); design: species or system Escherichia coli; details: Not Active = under 50% inhibition at 10 µM
Chain of Mitogen-activated protein kinase 3 (P27361 whole entry): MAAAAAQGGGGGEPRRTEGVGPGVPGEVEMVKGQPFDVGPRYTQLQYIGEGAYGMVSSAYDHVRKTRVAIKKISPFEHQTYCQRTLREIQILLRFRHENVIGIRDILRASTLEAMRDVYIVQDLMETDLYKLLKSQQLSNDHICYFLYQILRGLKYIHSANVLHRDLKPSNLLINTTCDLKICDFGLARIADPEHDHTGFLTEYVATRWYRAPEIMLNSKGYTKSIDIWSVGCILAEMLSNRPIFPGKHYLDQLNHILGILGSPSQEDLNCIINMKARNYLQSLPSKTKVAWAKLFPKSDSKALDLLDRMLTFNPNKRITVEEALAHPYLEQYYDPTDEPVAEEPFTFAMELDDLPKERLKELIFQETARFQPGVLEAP

[7] = biological target: D(1A) dopamine receptor (Homo sapiens, UniProt P21728); test: DRUGMATRIX: Dopamine D1 radioligand binding (ligand: [3H] SCH-23390); format: cell membranes, CHO, Membrane; details: Not Active = under 50% inhibition at 10 µM
Chain of D(1A) dopamine receptor (P21728 whole entry): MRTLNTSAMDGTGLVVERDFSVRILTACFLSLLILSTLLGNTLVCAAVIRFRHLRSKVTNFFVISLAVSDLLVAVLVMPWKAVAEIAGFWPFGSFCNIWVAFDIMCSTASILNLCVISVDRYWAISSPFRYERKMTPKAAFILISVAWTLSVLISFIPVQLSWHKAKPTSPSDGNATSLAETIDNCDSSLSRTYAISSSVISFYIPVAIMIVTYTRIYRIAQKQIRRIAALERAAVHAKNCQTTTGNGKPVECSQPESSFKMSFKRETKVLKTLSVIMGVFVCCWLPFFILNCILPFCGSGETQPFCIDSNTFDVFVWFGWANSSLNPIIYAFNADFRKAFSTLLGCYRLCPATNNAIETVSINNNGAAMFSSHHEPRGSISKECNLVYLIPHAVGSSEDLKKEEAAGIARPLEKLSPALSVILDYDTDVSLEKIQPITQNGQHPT

Chain of Estrogen receptor beta (Q92731 whole entry): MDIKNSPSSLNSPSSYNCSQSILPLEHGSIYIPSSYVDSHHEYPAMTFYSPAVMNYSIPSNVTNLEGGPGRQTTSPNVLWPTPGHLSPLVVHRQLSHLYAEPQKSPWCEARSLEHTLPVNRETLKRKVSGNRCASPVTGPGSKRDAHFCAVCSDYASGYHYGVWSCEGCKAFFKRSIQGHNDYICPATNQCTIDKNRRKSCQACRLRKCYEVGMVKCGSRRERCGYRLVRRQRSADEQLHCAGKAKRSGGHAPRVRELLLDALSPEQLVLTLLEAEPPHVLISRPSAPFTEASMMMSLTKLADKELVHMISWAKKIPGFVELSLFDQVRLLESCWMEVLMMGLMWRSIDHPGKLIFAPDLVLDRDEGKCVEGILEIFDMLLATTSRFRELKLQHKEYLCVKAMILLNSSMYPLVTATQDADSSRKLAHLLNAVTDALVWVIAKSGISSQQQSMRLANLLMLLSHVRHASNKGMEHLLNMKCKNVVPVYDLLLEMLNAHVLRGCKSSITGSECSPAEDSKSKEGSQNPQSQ
Chain of Platelet-activating factor receptor (P25105 whole entry): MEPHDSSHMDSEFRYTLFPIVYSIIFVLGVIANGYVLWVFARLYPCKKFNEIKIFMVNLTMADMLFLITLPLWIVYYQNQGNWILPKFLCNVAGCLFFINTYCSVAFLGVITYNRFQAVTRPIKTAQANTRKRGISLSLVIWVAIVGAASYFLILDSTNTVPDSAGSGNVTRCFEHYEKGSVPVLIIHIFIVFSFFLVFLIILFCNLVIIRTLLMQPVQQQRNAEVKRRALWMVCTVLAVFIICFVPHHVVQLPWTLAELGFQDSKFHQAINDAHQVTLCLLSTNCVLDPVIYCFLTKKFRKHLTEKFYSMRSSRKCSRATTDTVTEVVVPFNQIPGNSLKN

Molecule	IC50 [1]	IC50 [2]	IC50 [3]	IC50 [4]	Ki [4]	IC50 [5]	IC50 [6]	IC50 ([7]; cho)	IC50 ([3]; read-out: IC50) [nM]	Ki ([3]; read-out: Ki) [nM]	IC50 ([7]; read-out: IC50) [nM]	Ki ([7]; read-out: Ki) [nM]	IC50 ([6]; read-out: IC50) [nM]	Ki [1]	Ki [2]	Ki [3]	Ki [5]	Ki [6]	Ki ([7]; cho)
CCOC(=O)N1CCC(=C2c3ccc(Cl)cc3CCc3cccnc32)CC1 [LORATADINE]	Not Active	Not Active	Not Active	Not Active	Not Active	Not Active	Not Active	Not Active	–	–	–	–	–	–	–	–	–	–	–
Cn1ccnc1S [METHIMAZOLE]	Not Active	Not Active	Not Active	Not Active	Not Active	Not Active	Not Active	Not Active	–	–	–	–	–	–	–	–	–	–	–
CC[C@@H](CO)NC(=O)[C@@H]1C=C2c3cccc4[nH]cc(c34)C[C@H]2N(C)C1 [METHYLERGONOVINE]	Not Active	Not Active	–	Not Active	Not Active	Not Active	Not Active	–	15	9.26	1080	539	–	–	–	–	–	–	–
COc1nc(C)nc(Cl)c1NC1=NCCN1 [MOXONIDINE]	Not Active	Not Active	Not Active	Not Active	Not Active	Not Active	Not Active	Not Active	–	–	–	–	–	–	–	–	–	–	–
COc1c(C)c2c(c(O)c1C/C=C(\C)CCC(=O)O)C(=O)OC2 [MYCOPHENOLIC ACID]	Not Active	Not Active	Not Active	Not Active	Not Active	Not Active	Not Active	Not Active	–	–	–	–	–	–	–	–	–	–	–
O=c1ncn2nc(Sc3ccc(F)cc3F)ccc2c1-c1c(Cl)cccc1Cl [NEFLAMAPIMOD]	Not Active	Not Active	Not Active	Not Active	Not Active	Not Active	Not Active	Not Active	–	–	–	–	–	–	–	–	–	–	–
CO[C@H]1/C=C/O[C@@]2(C)Oc3c(C)c(O)c4c(O)c(c(/C=N/N5CCN(C)CC5)c(O)c4c3C2=O)NC(=O)/C(C)=C\C=C\[C@H](C)[C@H](O)[C@@H](C)[C@@H](O)[C@@H](C)[C@H](OC(C)=O)[C@@H]1C [RIFAMPIN]	Not Active	Not Active	Not Active	Not Active	Not Active	Not Active	Not Active	Not Active	–	–	–	–	–	–	–	–	–	–	–
Nc1nc2ccc(OC(F)(F)F)cc2s1 [RILUZOLE]	Not Active	Not Active	Not Active	Not Active	Not Active	Not Active	Not Active	Not Active	–	–	–	–	–	–	–	–	–	–	–
C=CCC1(C(C)CCC)C(=O)NC(=O)NC1=O (stereo not drawn) [SECOBARBITAL]	Not Active	Not Active	Not Active	Not Active	Not Active	Not Active	Not Active	Not Active	–	–	–	–	–	–	–	–	–	–	–
C[C@@H]1CN(c2c(F)c(N)c3c(=O)c(C(=O)O)cn(C4CC4)c3c2F)C[C@H](C)N1 [SPARFLOXACIN]	Not Active	Not Active	Not Active	Not Active	Not Active	Not Active	Not Active	Not Active	–	–	–	–	–	–	–	–	–	–	–
Cc1noc(NS(=O)(=O)c2ccc(N)cc2)c1C [SULFISOXAZOLE]	Not Active	Not Active	Not Active	Not Active	Not Active	Not Active	Not Active	Not Active	–	–	–	–	–	–	–	–	–	–	–
CSc1ccc(/C=C2/C(C)=C(CC(=O)O)c3cc(F)ccc32)cc1 [SULINDAC SULFIDE]	Not Active	Not Active	Not Active	Not Active	Not Active	Not Active	Not Active	–	–	–	27800	13900	–	–	–	–	–	–	–
Nc1c2c(nc3ccccc13)CCCC2 [TACRINE]	Not Active	Not Active	Not Active	Not Active	Not Active	Not Active	Not Active	Not Active	–	–	–	–	–	–	–	–	–	–	–
Nc1nc2nc[nH]c2c(=S)[nH]1 [THIOGUANINE]	Not Active	Not Active	Not Active	Not Active	Not Active	Not Active	–	Not Active	–	–	–	–	5520	–	–	–	–	–	–
Cc1cccc(N(C)C(=S)Oc2ccc3ccccc3c2)c1 [TOLNAFTATE]	Not Active	Not Active	Not Active	Not Active	Not Active	Not Active	Not Active	Not Active	–	–	–	–	–	–	–	–	–	–	–
NC[C@H]1CC[C@H](C(=O)O)CC1 [TRANEXAMIC ACID]	Not Active	Not Active	Not Active	Not Active	Not Active	Not Active	Not Active	Not Active	–	–	–	–	–	–	–	–	–	–	–
CC1(C)O[C@@H]2C[C@H]3[C@@H]4CCC5=CC(=O)C=C[C@]5(C)[C@@]4(F)[C@@H](O)C[C@]3(C)[C@]2(C(=O)CO)O1 [TRIAMCINOLONE ACETONIDE]	Not Active	Not Active	Not Active	Not Active	Not Active	Not Active	Not Active	Not Active	–	–	–	–	–	–	–	–	–	–	–
NS(=O)(=O)c1cc2c(cc1Cl)NC(C(Cl)Cl)NS2(=O)=O (stereo not drawn) [TRICHLORMETHIAZIDE]	Not Active	Not Active	Not Active	Not Active	Not Active	Not Active	Not Active	Not Active	–	–	–	–	–	–	–	–	–	–	–
Cc1c(C)c2c(c(C)c1O)CCC(C)(COc1ccc(CC3SC(=O)NC3=O)cc1)O2 (stereo not drawn) [TROGLITAZONE]	Not Active	Not Active	Not Active	Not Active	Not Active	Not Active	Not Active	Not Active	–	–	–	–	–	–	–	–	–	–	–
N[C@@H]1[C@H]2CN(c3nc4c(cc3F)c(=O)c(C(=O)O)cn4-c3ccc(F)cc3F)C[C@@H]12 [TROVAFLOXACIN]	Not Active	Not Active	Not Active	Not Active	Not Active	Not Active	Not Active	Not Active	–	–	–	–	–	–	–	–	–	–	–
N#CC(C#N)=Cc1ccc(O)c(O)c1 [TYRPHOSTIN 23]	Not Active	Not Active	Not Active	Not Active	Not Active	Not Active	Not Active	Not Active	–	–	–	–	–	–	–	–	–	–	–
CCCOc1ccccc1-c1nc2nn[nH]c2c(=O)[nH]1 [ZAPRINAST]	Not Active	Not Active	Not Active	Not Active	Not Active	Not Active	Not Active	Not Active	–	–	–	–	–	–	–	–	–	–	–
SODIUM NITROPRUSSIDE	Not Active	Not Active	Not Active	Not Active	Not Active	Not Active	Not Active	Not Active	–	–	–	–	–	Not Active	Not Active	Not Active	Not Active	Not Active	Not Active

Reference: ChEMBL document CHEMBL1909046, “DrugMatrix in vitro pharmacology data”
